Results taken from paper PMC12349723, “Computationally accelerated identification of P-glycoprotein inhibitors” (PLOS One, 2025).

Target: T1, P-gp (Homo sapiens, UniProt P08183)
T1 construct: The MDR, P-gp overexpressing DU145-TXR cells were maintained under positive selection pressure; endogenous in cells; host or cells: DU145-TXR (paclitaxel-resistant sub-line of DU145 human prostate cancer cells)
Test: LC-MS/MS intracellular accumulation assay with or without tariquidar (P-gp transport substrate test) in DU145-TXR cells
Assay type: in vitro ADME
Settings: for Intracellular accumulation (normalized ratio of compound to internal standard), Trial 1, + TQR / Intracellular accumulation (normalized ratio of compound to internal standard), Trial 2, + TQR / Intracellular accumulation (normalized ratio of compound to internal standard), Trial 1, - TQR / Intracellular accumulation (normalized ratio of compound to internal standard), Trial 2, - TQR / Intracellular accumulation (normalized ratio of compound to internal standard), Trial 3, + TQR / Intracellular accumulation (normalized ratio of compound to internal standard), Trial 3, - TQR: DU145-TXR, 5 µM compound, 2.5 h, mean ± SD, triplicate; for Intracellular accumulation (normalized ratio of compound to internal standard), Trial 1, + TQR / Intracellular accumulation (normalized ratio of compound to internal standard), Trial 2, + TQR / Intracellular accumulation (normalized ratio of compound to internal standard), Trial 3, + TQR: with 500 nM tariquidar; for Intracellular accumulation (normalized ratio of compound to internal standard), Trial 1, - TQR / Intracellular accumulation (normalized ratio of compound to internal standard), Trial 2, - TQR / Intracellular accumulation (normalized ratio of compound to internal standard), Trial 3, - TQR: without tariquidar; for P (- TQR vs + TQR), Trial 1 / P (- TQR vs + TQR), Trial 2 / P (- TQR vs + TQR), Trial 3: Student's T test of the mean
Experimental: DU145-TXR cells were seeded at 350,000 cells per well in 6-well plates in complete RPMI medium. […] A full sample of DAU was also prepared for quantitative analysis. […] Media was removed with a glass vacuum aspirator. Cells were re-suspended and washed in 2mL of ice-cold Hank’s Balanced Salt Solution (HBSS, Gibco), and spun again at 2400 rpm. Cell lysates were diluted in 600 µL of ice-cold HBSS, flash-frozen in liquid nitrogen, and stored at −80 °C until analysis. LC-MS/MS intracellular accumulation assays were performed in collaboration with the Pharmacology Core at the University of Texas Southwestern Medical Center (UTSW). […] This method allowed us to quantify the change – if any – in the relative amount of compound present in the samples when TQR was added. An increase in the relative amount of compound indicates enhanced intracellular retention that compound. […] The “Internal Standard” (IS) is a known substance added in a constant amount to each sample. The “Peak Area”, expressed as “counts”, describes the number of MS/MS spectra from the experimental compound and serves as a measure of its relative abundance. […] These values allow a comparison of the relative abundance of compound between the “- TQR” and “+ TQR” samples, and to test for statistically significant differences. LC-MS/MS quantification was performed as follows. Cell lysate was aliquoted into Eppendorf tubes. In contrast to [9], blank cell lysates were not spiked with varying concentrations of each compound to create a standard curve, since compound amounts were normalized to abundance of the internal standard. […] The supernatant was then transferred to an HPCL vial, and subsequently analyzed using LC-MS/MS using a Sciex 4000QTRAP mass spectrometer coupled to a Shimadzu Prominence LC. […] The column flow rate was 1.5 ml/min using an Agilent C18 XDB, 5 micron packing 50 × 4.6 mm column. […] A BSA standard curve was then prepared in water and mixed using the same ratio. […] The ratio of Analyte to Internal Standard was normalized to the lysate content for each individual sample. […] Statistical significance was determined using a Student’s T Test in GraphPad Prism. We aimed to identify P-gp inhibitors that are not transport substrates of the pump itself. […] To test these predictions in vitro, liquid chromatography with tandem mass spectrometry (LC-MS/MS) was used to assess the intracellular accumulation of experimental compounds as described in [9]. […] The relative intracellular accumulation of each experimental compound was then assessed using LC-MS/MS. […] The P-gp substrate and chemotherapeutic daunorubicin (DAU) was used as a positive control for P-gp-mediated transport.

T1 sequence (P08183 whole entry): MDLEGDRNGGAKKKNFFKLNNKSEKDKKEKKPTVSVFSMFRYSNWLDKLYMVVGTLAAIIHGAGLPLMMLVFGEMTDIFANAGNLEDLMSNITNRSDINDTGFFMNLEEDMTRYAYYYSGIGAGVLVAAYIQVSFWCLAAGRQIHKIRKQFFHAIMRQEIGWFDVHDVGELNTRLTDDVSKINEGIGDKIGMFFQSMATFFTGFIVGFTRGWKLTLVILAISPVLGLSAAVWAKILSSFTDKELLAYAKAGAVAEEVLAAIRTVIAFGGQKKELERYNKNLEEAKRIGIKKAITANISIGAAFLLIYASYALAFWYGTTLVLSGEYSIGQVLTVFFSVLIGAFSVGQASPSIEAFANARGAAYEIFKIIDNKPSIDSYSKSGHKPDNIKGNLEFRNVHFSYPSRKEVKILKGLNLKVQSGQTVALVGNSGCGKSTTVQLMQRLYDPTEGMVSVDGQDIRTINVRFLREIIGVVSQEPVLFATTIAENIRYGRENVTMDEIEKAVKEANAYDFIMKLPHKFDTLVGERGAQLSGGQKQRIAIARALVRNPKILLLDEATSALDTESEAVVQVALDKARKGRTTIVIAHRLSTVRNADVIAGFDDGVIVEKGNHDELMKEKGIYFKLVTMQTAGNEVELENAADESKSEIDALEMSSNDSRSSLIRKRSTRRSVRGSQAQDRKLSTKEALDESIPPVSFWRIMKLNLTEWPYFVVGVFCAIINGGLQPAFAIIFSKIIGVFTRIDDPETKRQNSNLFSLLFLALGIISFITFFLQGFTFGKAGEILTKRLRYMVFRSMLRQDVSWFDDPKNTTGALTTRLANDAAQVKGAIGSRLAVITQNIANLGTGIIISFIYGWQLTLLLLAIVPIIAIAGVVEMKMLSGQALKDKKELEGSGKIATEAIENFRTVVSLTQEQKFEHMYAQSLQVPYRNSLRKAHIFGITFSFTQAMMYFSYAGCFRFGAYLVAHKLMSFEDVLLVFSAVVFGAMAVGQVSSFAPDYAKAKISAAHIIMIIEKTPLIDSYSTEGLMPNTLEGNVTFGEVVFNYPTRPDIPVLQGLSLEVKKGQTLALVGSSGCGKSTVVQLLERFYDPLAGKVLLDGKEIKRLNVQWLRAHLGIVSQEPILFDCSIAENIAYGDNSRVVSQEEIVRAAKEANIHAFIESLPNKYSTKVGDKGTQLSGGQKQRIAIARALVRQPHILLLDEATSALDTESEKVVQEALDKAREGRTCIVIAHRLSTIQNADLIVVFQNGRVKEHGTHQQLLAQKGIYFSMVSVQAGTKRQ

Row | SMILES | Intracellular accumulation (normalized ratio of compound to internal standard), Trial 1, + TQR | Intracellular accumulation (normalized ratio of compound to internal standard), Trial 2, + TQR | Intracellular accumulation (normalized ratio of compound to internal standard), Trial 1, - TQR | Intracellular accumulation (normalized ratio of compound to internal standard), Trial 2, - TQR | P (- TQR vs + TQR), Trial 1 | P (- TQR vs + TQR), Trial 2 | Intracellular accumulation (normalized ratio of compound to internal standard), Trial 3, + TQR | Intracellular accumulation (normalized ratio of compound to internal standard), Trial 3, - TQR | P (- TQR vs + TQR), Trial 3
1 | Nc1nonc1-n1nnc(C(=O)N/N=C/c2c3ccccc3cc3ccccc23)c1COc1ccc(F)cc1 [Compound 60, Nc1nonc1-n1nnc(C(=O)N\N=C\c2c3ccccc3cc3ccccc23)c1COc1ccc(F)cc1] | 0.282 ± 0.010 | 0.250 ± 0.003 | 0.231 ± 0.165 | 0.250 ± 0.003 | 0.6 | > 1 | – | – | –
2 | CCN1CCN(Cc2c(C(=O)N/N=C3/C(=O)N(C)c4ccccc43)nnn2-c2nonc2N)CC1 [Compound 61, CCN1CCN(Cc2c(nnn2-c2nonc2N)C(=O)N\N=C2\C(=O)N(C)c3ccccc23)CC1] | 0.076 ± 0.001 | 0.027 ± 0.011 | 0.023 ± 0.002 | 0.016 ± 0.006 | 2 x 10^-6 | 0.2 | 0.126 ± 0.010 | 0.021 ± 0.004 | 0.0001
3 | O=C(c1cc2ccccc2[nH]1)N1CCN(S(=O)(=O)c2cccc3nonc23)CC1 [Compound 66, O=C(N1CCN(CC1)S(=O)(=O)c1cccc2nonc12)c1cc2ccccc2[nH]1] | 0.833 ± 0.124 | 0.036 ± 0.005 | 0.747 ± 0.096 | 0.040 ± 0.001 | 0.4 | 0.2 | 0.140 ± 0.029 | 0.170 ± 0.039 | 0.3
4 | COc1ccc(OC)c(NC(=O)c2nnn(-c3ccc4noc(-c5ccccc5)c4c3)c2C)c1 [Compound 71, COc1ccc(OC)c(NC(=O)c2nnn(c2C)-c2ccc3noc(-c4ccccc4)c3c2)c1] | 0.067 ± 0.005 | 0.091 ± 0.043 | 0.085 ± 0.013 | 0.071 ± 0.009 | 0.09 | 0.5 | – | – | –
